We go through 20 compounds from patent publication US20260132129A1 (Genesis Therapeutics, Inc., priority 2022, published 2026).

As usually defined, the IC50 is the concentration that inhibits the measured activity by half. The low end stands for inhibition by little substance, the high end for a need for much substance.

Bounds are passed on as bounds.

This assay addresses T1, PI3Kα H1047R (T47D cells) (Homo sapiens, UniProt P42336, H1047R).
T1 construct: endogenous in cells; host or cells: T47D cells
Nature of the assay: PI3Kα cellular assay: pAKT HTRF in T47D cells after EGF stimulation. Format: cell-based. Particulars: for IC50: T47D cells (PI3Kα H1047R), pAKT S473 HTRF, EGF stimulation. The method in brief:
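pAKT read by HTRF in lysates of EGF-stimulated (20 ng/mL, 10 min) T47D H1047R cells. Before stimulation, serum-starved cells (16 h) received compound for 1 h at 37 °C, dosed from 10,000 nM down to 0.5 nM in 3-fold steps.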
(Time-resolved FRET reads energy transfer from a long-lived donor to a nearby acceptor.)

[1] abbreviates: selectivity T47D (H1047R) over SKBR3 (WT), pAKT HTRF.

T1 sequence (P42336 whole entry H1047R): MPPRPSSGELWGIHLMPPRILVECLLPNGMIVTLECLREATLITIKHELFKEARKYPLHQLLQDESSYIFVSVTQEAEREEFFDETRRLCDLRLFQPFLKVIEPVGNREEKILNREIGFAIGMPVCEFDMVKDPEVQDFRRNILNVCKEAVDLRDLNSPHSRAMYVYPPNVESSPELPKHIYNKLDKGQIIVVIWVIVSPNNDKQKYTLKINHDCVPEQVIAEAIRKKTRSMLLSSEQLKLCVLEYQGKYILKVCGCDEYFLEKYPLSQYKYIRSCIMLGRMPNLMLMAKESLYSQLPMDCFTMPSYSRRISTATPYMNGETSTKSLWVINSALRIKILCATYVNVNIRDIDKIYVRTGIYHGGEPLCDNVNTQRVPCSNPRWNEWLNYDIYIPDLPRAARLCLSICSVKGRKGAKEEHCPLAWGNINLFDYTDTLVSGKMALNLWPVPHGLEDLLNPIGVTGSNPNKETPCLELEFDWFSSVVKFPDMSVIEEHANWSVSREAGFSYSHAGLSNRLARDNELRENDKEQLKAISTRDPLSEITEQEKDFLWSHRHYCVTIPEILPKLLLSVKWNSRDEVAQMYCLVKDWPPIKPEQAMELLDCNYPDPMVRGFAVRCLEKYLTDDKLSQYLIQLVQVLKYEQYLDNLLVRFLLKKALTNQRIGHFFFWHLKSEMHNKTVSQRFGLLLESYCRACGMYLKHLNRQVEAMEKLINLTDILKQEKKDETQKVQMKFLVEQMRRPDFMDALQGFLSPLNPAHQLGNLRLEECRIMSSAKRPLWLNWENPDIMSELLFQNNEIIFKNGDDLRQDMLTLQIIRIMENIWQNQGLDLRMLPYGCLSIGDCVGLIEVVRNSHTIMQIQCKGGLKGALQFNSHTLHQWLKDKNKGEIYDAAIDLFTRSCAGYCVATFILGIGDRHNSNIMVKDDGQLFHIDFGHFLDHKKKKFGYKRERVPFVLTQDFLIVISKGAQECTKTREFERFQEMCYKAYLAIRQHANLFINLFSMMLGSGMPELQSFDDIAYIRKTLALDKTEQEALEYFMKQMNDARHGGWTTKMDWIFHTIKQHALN
T1 sequence (P27986 whole entry partner): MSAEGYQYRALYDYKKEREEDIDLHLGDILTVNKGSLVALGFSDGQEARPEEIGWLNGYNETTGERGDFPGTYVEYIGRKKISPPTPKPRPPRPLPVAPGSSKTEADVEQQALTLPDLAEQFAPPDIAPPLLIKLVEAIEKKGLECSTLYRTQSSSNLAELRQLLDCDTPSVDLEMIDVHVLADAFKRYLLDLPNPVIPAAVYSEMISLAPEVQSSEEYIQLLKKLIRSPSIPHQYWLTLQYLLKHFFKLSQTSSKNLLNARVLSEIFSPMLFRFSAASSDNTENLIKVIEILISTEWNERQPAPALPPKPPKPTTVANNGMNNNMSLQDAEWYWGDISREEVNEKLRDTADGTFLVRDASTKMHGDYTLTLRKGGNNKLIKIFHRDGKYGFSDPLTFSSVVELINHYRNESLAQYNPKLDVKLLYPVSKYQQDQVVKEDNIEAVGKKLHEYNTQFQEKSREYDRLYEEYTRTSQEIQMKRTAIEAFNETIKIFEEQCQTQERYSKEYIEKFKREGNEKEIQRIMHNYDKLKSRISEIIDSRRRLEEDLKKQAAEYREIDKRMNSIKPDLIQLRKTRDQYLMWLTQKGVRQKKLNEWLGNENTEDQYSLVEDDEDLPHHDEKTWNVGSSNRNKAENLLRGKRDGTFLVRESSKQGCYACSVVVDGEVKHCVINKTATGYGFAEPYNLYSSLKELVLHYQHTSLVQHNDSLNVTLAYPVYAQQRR

In turn, `Cc1cc([C@H](C)Nc2ccccc2C(=O)O)c2nc(C3CCOCC3)c(C)c(=O)n2c1` [Compound 1056] had an IC50 of over 2 µM. Where the note is “selectivity of T47D (H1047R) over SKBR3 (WT) pAKT IC50”, the “T47D pAKT S473 HTRF IC50 (H1047R): T47D (H1047R) selectivity over SKBR3 (WT)” value is listed as “C (C denotes ≤5-fold)”.
For `Cc1cc([C@H](C)Nc2ccccc2S(N)(=O)=O)c2nc(-c3cnc4c(c3)c(C)cn4C)c(C)c(=O)n2c1` [Compound 1060], the IC50 was over 2 µM. Also, the “T47D pAKT S473 HTRF IC50 (H1047R): T47D (H1047R) selectivity over SKBR3 (WT)” value under setting [1] is on record as “C (C denotes ≤5-fold)”.
On to `Cc1cc([C@@H](C)Nc2ccccc2S(C)(=O)=O)c2nc(-c3ccc4c(C)cn(C)c4c3)c(C)c(=O)n2c1` [Compound 1061], for which the “T47D pAKT S473 HTRF IC50 (H1047R): T47D (H1047R) selectivity over SKBR3 (WT)” value under setting [1] is given as “C (C denotes ≤5-fold)”.
Still for that read-out and setting: the result for `Cc1cc([C@H](C)Nc2ccccc2S(C)(=O)=O)c2nc(-c3ccc4c(C)cn(C)c4c3)c(C)c(=O)n2c1` [Compound 1062] reads “C (C denotes ≤5-fold)”.
For `Cc1cc(C(C)Nc2ccccc2C(N)=O)c2nc(-c3ccnc(C4CC4)c3)c(C)c(=O)n2c1` (centres unmarked) [Compound 1063], the IC50 is 0.1 to 0.5 µM. Also, the “T47D pAKT S473 HTRF IC50 (H1047R): T47D (H1047R) selectivity over SKBR3 (WT)” value under setting [1] was “A (A denotes >20-fold)”.
The corresponding values for `Cc1cc([C@H](C)Nc2ccccc2C(=O)O)c2nc(-c3ccnc(C)c3)c(C)c(=O)n2c1` [Compound 1068] are over 2 µM and “C (C denotes ≤5-fold)”.
In turn, `Cc1cc([C@@H](C)Nc2ccccc2C(=O)O)c2nc(-c3ccc(Cl)cc3F)c(C)c(=O)n2c1` [Compound 1069] returned an IC50 of under 0.1 µM. The “T47D pAKT S473 HTRF IC50 (H1047R): T47D (H1047R) selectivity over SKBR3 (WT)” value under setting [1] is “A (A denotes >20-fold)”.
`COc1ccc(-c2nc3c([C@@H](C)Nc4ccccc4C(=O)O)cc(C)cn3c(=O)c2C)cc1` [Compound 1070]: the IC50 is under 0.1 µM. The “T47D pAKT S473 HTRF IC50 (H1047R): T47D (H1047R) selectivity over SKBR3 (WT)” value under setting [1] was “A (A denotes >20-fold)”.
The corresponding values for `COc1ccc(-c2nc3c([C@H](C)Nc4ccccc4C(=O)O)cc(C)cn3c(=O)c2C)cc1` [Compound 1071] are over 2 µM and “C (C denotes ≤5-fold)”.
Take `Cc1cc([C@@H](C)Nc2ccccc2C(=O)O)c2nc(-c3cccc(F)c3)c(C)c(=O)n2c1` [Compound 1073]: the IC50 was over 2 µM. Besides, the “T47D pAKT S473 HTRF IC50 (H1047R): T47D (H1047R) selectivity over SKBR3 (WT)” value under setting [1] is given as “C (C denotes ≤5-fold)”.
`Cc1cc([C@H](C)Nc2ccccc2C(=O)O)c2nc(-c3ccc(CC4CCN(C(=O)C5CC5)CC4)c(F)c3)c(C)c(=O)n2c1` [Compound 1075] returned an IC50 of over 2 µM. Under setting [1], the “T47D pAKT S473 HTRF IC50 (H1047R): T47D (H1047R) selectivity over SKBR3 (WT)” value was “C (C denotes ≤5-fold)”.
The corresponding values for `Cc1cc([C@@H](C)Nc2ccccc2C(=O)O)c2nc(-c3cccc(C(F)F)c3)c(C)c(=O)n2c1` [Compound 1077] are 0.5 to 2 µM and “B (B denotes 20-fold≥value>5-fold)”.
On the same counts, the results for `Cc1cc([C@H](C)Nc2ccccc2C(=O)O)c2nc(-c3ccc4c(c3)c(C#N)nn4C)c(C)c(=O)n2c1` [Compound 1082] are 0.5 to 2 µM and “B (B denotes 20-fold≥value>5-fold)”.
On the same counts, the results for `Cc1cc([C@H](C)Nc2ccccc2C(=O)O)c2nc(-c3cnc(C#N)c(Cl)c3)c(C)c(=O)n2c1` [Compound 1084] are over 2 µM and “C (C denotes ≤5-fold)”.
In the case of `Cc1cc(C(C)Nc2ccccc2)c2nc(N3Cc4ccccc4C3)c(C)c(=O)n2c1` (centres unmarked) [Compound 1085], the concentration for half-maximal inhibition (IC50) was over 2 µM. Further, the “T47D pAKT S473 HTRF IC50 (H1047R): T47D (H1047R) selectivity over SKBR3 (WT)” value under setting [1] is “C (C denotes ≤5-fold)”.
In turn, `Cc1cc(C(C)Nc2ccccc2)c2nc(-c3ccc(F)cc3)c(C)c(=O)n2c1` (centres unmarked) [Compound 1086] had an IC50 of over 2 µM. Moreover, under setting [1], the “T47D pAKT S473 HTRF IC50 (H1047R): T47D (H1047R) selectivity over SKBR3 (WT)” value is “C (C denotes ≤5-fold)”.
The compound `Cc1cc([C@@H](C)Nc2ccccc2C(N)=O)c2nc(-c3ccnc(C4CC4)c3)c(C)c(=O)n2c1` [Compound 1089] registered an IC50 of over 2 µM. Besides, the “T47D pAKT S473 HTRF IC50 (H1047R): T47D (H1047R) selectivity over SKBR3 (WT)” value under setting [1] was “C (C denotes ≤5-fold)”.
Regarding `Cc1cc(C(C)Nc2ccccc2C(N)=O)c2nc(-c3ccnc(C4CC4)c3)c(C)c(=O)n2c1` (centres unmarked) [Compound 1090], the IC50 is under 0.1 µM. The “T47D pAKT S473 HTRF IC50 (H1047R): T47D (H1047R) selectivity over SKBR3 (WT)” value under setting [1] was “A (A denotes >20-fold)”.
The corresponding values for `Cc1cc(C(C)Nc2ccccc2C(N)=O)c2nc(-c3ccc(F)c(C#N)c3)c(C)c(=O)n2c1` (centres unmarked) [Compound 1092] are 0.1 to 0.5 µM and “A (A denotes >20-fold)”.
For the compound `Cc1cc(C(C)Nc2ccccc2C(N)=O)c2nc(-c3cnc(C)c(Cl)c3)c(C)c(=O)n2c1` (centres unmarked) [Compound 1094], the IC50 lay within 0.1 to 0.5 µM. Under setting [1], the “T47D pAKT S473 HTRF IC50 (H1047R): T47D (H1047R) selectivity over SKBR3 (WT)” value was “A (A denotes >20-fold)”.
